Measured values: publication PMC6920776, “Exploring Biological Activity of 4-Oxo-4H-furo[2,3-h]chromene Derivatives as Potential Multi-Target-Directed Ligands Inhibiting Cholinesterases, β-Secretase, Cyclooxygenase-2, and Lipoxygenase-5/15” (Biomolecules, 2019)
Where “and” joins values, the source holds several entries; their conditions need not be identical. Equal entries are not always repeated. Structures can show the parent of a compound that is named as a salt. Where two headings read alike, the source gives them in different places.

What was measured:
[1] = target: T1, AChE (Homo sapiens, UniProt P22303); experiment: biochemical; conditions: for Selectivity index (SI): SI = IC50 (AChE)/IC50 (BChE); for IC50: recombinant human AChE, Ellman's method, triplicate
[2] = target: T2, BChE (Homo sapiens, UniProt P06276); experiment: biochemical; conditions: Ellman's method, triplicate
T2 construct: purchased Cloud-Clone Corp., through BIOCOM Africa (Pty) Ltd RPC348Hu0 2_100
Method: Their anti-AChE and BChE activities were determined by spectrophotometric Ellman’s method [42]. […] The mixtures were incubated for 15 min at RT. The reaction was initiated by adding 10 µL of a mixture solution of 5 mM 5,50-dithio-bis-nitrobenzoic acid (DTNB) in 50 mM tris buffer (pH 7.7) and 10 µL acetylthiocholine (ASCh) (5 mM) in 50 mM tris buffer, pH 7.7. The hydrolysis of ASCh was determined by monitoring the formation of the yellow 5-thio-2-nitrobenzoate anion resulting from reaction of DTNB with thiocholines (SCh).
The IC50 values were determined graphically from inhibition curves (inhibitor concentration and absorbance) using the graph pad prism.

[3] = target: T3, COX-2 (Homo sapiens, UniProt P35354); experiment: biochemical; conditions: duplicate runs
T3 construct: purchased Bio Vision K547
T3 sequence (P35354 18-604): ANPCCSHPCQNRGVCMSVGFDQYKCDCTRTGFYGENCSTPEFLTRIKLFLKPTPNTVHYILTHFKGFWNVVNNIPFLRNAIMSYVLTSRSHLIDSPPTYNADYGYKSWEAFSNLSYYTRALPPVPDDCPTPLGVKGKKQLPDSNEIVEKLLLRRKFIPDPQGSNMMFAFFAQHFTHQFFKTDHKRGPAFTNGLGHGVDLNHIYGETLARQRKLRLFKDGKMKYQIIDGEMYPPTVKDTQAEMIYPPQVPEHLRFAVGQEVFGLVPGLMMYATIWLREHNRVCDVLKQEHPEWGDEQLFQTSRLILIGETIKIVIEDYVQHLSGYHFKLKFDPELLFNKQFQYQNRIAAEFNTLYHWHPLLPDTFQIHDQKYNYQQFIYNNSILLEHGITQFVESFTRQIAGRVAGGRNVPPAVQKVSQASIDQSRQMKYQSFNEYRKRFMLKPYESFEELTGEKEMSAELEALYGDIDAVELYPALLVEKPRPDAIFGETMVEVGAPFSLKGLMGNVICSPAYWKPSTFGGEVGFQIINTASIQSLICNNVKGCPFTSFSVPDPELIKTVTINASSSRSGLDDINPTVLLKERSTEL
Method: The reagents for the COX-2 assay were prepared according to the standard protocol enclosed in the Cyclooxygenase inhibitor screening kit (Item No. K547; Bio Vision, Milpitas Blvd, Milpitas, CA USA). […] The assay mixtures in a 96-well plate were distributed as follows: two wells taken as enzyme control (10µL assay buffer) and two wells as inhibitor control (2 µL of celecoxib and 8 µL of COX assay buffer). Ten microliters of the test compounds concentrations and those of celecoxib were added to the remaining wells with the aid of a multi-channel pipette. Then, 80 µL of the reaction mix (a mixture of 76 µL COX assay buffer, 1 µL of COX probe, 2 µL of diluted COX cofactor and 1 µL of COX-2 enzyme) were added to the reaction mixture. The assay mixtures in the 96-well plate were incubated for 5 min. The reactions were initiated by the addition of 10 µL of diluted arachidonic acid and sodium hydroxide solution (10 µL of arachidonic acid and 90 µL of sodium hydroxide) to each well. The absorbance was measured using a Varioskan flash microplate spectrophotometer, and the IC50 was calculated with the aid of a graph pad prism

[4] = target: T4, soybean lipoxygenases-15 (LOX-15) (Glycine max, UniProt P08170); experiment: Soybean LOX-15 inhibitory assay; type: biochemical
T4 construct: purchased Cayman Chemicals 760700
T4 sequence (P08170 1-839): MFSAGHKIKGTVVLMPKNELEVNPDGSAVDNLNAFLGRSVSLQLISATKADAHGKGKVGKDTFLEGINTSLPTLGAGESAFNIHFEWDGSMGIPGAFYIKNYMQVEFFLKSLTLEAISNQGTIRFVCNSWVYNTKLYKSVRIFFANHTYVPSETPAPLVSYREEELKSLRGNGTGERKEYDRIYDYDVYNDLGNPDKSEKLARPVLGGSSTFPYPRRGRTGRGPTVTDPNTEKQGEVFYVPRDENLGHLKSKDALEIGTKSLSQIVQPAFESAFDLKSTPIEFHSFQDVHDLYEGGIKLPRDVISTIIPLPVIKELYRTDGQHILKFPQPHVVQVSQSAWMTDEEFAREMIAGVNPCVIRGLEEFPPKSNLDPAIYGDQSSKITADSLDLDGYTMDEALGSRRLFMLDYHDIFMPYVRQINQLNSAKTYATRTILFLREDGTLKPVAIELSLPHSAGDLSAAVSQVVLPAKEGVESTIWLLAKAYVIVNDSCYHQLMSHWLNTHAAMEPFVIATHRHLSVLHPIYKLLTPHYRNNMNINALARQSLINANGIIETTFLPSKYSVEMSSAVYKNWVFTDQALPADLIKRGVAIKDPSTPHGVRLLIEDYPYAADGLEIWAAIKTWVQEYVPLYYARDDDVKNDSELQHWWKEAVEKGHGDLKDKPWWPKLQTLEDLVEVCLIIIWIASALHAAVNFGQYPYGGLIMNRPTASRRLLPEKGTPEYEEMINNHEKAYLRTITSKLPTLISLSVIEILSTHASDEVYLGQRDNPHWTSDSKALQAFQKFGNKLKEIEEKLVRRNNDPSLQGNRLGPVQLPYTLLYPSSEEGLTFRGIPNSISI
Method: Stock solutions of the test samples prepared in DMSO were further diluted with 50 mM Tris buffer of pH 7.7 to obtain concentrations of 0.01, 0.1, 1, 10, and 100 µM. The cells of a 96-well plate where arranged as follows: two wells taken as blanks (100 µL 50mM Tris buffer pH, 7.7), two wells taken as enzyme controls (90 µL of 15-LO Standard and 10 µL of DMSO), and two as 100% initial activity wells (90 µL lipoxygenase enzyme solution and 10 µL tris buffer). Then, 90 µL of lipoxygenase enzyme solution and 10 µL of each test compound (and reference standards) from the above concentrations were added to the other wells of a 96-well plate, and the plate was incubated for 5 min at room temperature. The reaction was initiated by addition of 10 µL of the arachidonic acid to each well containing the assay mixtures. The 96-well plate was shaken for 5 min on a shaker, and 100 µL of the chromogen (solution of equal volume developing reagent 1 and 2) was added to each well to initiate the reaction. The plate was again shaken for 5 min and the absorbance read at 490 nm in a Varioskan flash microplate spectrophotometer reader. The inhibitory concentration was expressed as a percentage using the formula below. Inhibitory concentration = AInitial activity −(ASample − ABlank sample)/AInitial activity×100 where ASample is the absorbance of the reaction mixture of the test sample, ABlank sample is the absorbance of the reaction mixture containing all reagents except enzyme, and AInitial activity is the absorbance of 100% initial activity.

[5] = target: T5, human LOX-5 (Homo sapiens, UniProt P09917); experiment: Human LOX-5 inhibitory assay; type: biochemical
T5 construct: purchased BioVision K980
T5 sequence (P09917 1-674): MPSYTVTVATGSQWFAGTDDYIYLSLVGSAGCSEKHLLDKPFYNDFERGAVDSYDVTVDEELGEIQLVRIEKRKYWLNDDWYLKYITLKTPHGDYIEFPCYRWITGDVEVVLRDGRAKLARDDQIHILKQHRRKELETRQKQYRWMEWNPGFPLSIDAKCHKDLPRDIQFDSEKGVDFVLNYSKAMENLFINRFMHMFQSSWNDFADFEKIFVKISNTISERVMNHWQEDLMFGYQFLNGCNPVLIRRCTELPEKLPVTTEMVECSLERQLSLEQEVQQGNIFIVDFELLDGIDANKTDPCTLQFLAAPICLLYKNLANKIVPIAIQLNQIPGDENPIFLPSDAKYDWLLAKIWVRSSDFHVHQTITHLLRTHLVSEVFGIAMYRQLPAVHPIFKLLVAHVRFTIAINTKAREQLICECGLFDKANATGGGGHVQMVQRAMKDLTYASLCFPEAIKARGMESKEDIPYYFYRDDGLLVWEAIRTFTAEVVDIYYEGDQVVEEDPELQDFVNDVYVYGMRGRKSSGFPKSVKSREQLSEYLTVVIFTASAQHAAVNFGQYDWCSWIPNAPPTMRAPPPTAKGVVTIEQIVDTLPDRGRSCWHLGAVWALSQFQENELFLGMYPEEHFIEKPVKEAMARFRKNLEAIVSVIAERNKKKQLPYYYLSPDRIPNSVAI
Method: The reagents were prepared according to the Lipoxygenase inhibitor screening kit (Item No. K980; BioVision, Milpitas Blvd, Milpitas, CA, USA) standard protocol. Stock solutions of the test compounds were prepared in DMSO, and further diluted with 50 mM Tris HCl buffer (pH 7.7) to obtain final concentrations of 0.01, 0.1, 1, 5, and 10 µM. […] The wells of a 96-well plate were arranged as follows: two wells were taken as blanks (40 µL of assay buffer) and two as enzyme controls (2 µL of LOX-5 Standard and 38 µL of tris buffer). Two microliters (2 µL) of the test compounds (various concentration of test compounds and reference standards, respectively) followed by 38 µL of LOX assay buffer were added to the other wells of the 96-well plate in duplicate. Then, 40 µL of the reaction mixture (prepared by mixing thoroughly 36 µL of LOX assay buffer, 2 µL of LOX probe and 2 µL of LOX-5 enzyme) was added to each well containing the test mixtures, and the wells were incubated for 10 min at RT. The DMSO concentration in each reaction well was 1% to prevent enzyme structural deformation and, therefore, reduced activity. […] The percentage inhibition (%) was calculated using the equation below.
% Inhibition = Control − Test/Control×100

[6] = DPPH radical scavenging assay; conditions: 45 min in the dark, triplicate
Method: The DPPH radical scavenging activity of compounds 2a–i and 3a–i was evaluated following the literature method by Zhu et al.. The compounds were evaluated against ascorbic acid (Sigma Aldrich, Saint Louis, Missouri, USA) as a positive control. Various concentrations of the test compounds and control (0 µM to 40 µM) in DMSO were mixed with a solution of DPPH (0.20 mM) in methanol. The mixtures were incubated in the dark for 45 min and then the absorbances were recorded at 512 nm using Varioskan flash microplate spectrophotometer reader. All tests and analyses were run in triplicate and averaged. The inhibition was calculated in terms of percentage using the formula below: DPPH radical scavenged (%)=AbC − AbS/AbC×100 where AbC is absorbance of control and AbS the absorbance of the test sample.

[7] = test system: breast cancer MCF-7 cell line; experiment: MTT antigrowth assay, MCF-7; type: cell-based; conditions: preliminary results, read-out: IC50 antigrowth effect, MCF-7
Method: (§1) Briefly, the Hek293-T cells and MCF-7 cancer cells were seeded in a 96-well plate at a density of 20 × 10^3 cells per well, and then incubated at 37 °C in 5% CO2 to allow cell attachment. The medium was removed and replaced with fresh medium containing various concentrations of the test sample and doxorubicin hydrochloride (10, 25, 50, 100, and 200 μM) and incubated for 24 h. After treatment for 24 h, 10 μL MTT (5 mg/mL) was added to each well and the plate was further incubated for 4 h. The supernatant was removed, and 100 μL of DMSO was added to each well to dissolve the resulting formazan crystals. The absorbance was read at 570 nm using the Varioskan flash microplate spectrophotometer reader and the cell viability. The percentages of cell viability were used to determine the IC50 values.

[8] = target: T6, BACE-1 (Homo sapiens, UniProt P56817); experiment: β-Secretase FRET inhibition assay; type: biochemical; conditions: pH 4.5, 60 min at 25 °C, triplicate
T6 construct: purchased Pan Vera; host or cells: baculovirus expression

[9] = target: T1, AChE; type: biochemical
Excerpt: (§2) The Lineweaver–Burk plots (plots of the inverse of velocity against the inverse of the substrate concentration) were used to ascertain the mode of inhibition of these compounds. The Dixon plots of the inverse of velocity (1/v) against the concentration of the inhibitor at each concentration of substrate were used to determine their inhibitor constants (Ki).

[10] = target: T2, BChE; type: biochemical
Excerpt: as §2

[11] = target: T6, BACE-1; experiment: Kinetic study against β-secretase (Lineweaver-Burk and Dixon plots); type: biochemical
Excerpt: The Lineweaver–Burk plot (plot of the inverse of velocity (1/v) against the inverse of the substrate concentration (1/[S])) was used to ascertain the mode of inhibition of this compound.

[12] = test system: Hek293-T cells; experiment: MTT cytotoxicity assay, Hek293-T; conditions: up to a concentration of 50 μM
Method: as §1

[13] = Lineweaver-Burk and Dixon plots

T2 sequence (P06276 29-602): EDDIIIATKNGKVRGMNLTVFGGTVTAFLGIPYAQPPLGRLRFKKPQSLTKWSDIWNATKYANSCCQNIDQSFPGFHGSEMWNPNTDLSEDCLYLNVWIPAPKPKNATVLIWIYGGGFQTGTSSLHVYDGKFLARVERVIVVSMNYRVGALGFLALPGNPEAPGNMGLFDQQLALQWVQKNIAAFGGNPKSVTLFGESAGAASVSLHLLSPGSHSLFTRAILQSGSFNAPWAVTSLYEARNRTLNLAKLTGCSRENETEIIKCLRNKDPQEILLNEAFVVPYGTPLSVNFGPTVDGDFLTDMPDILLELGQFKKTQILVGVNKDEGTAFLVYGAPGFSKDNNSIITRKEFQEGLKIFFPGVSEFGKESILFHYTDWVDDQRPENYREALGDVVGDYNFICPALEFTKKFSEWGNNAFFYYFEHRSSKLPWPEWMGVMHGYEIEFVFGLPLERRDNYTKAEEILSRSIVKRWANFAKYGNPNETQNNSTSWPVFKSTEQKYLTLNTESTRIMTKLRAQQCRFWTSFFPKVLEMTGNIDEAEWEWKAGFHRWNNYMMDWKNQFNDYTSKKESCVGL
T6 sequence (P56817 46-501): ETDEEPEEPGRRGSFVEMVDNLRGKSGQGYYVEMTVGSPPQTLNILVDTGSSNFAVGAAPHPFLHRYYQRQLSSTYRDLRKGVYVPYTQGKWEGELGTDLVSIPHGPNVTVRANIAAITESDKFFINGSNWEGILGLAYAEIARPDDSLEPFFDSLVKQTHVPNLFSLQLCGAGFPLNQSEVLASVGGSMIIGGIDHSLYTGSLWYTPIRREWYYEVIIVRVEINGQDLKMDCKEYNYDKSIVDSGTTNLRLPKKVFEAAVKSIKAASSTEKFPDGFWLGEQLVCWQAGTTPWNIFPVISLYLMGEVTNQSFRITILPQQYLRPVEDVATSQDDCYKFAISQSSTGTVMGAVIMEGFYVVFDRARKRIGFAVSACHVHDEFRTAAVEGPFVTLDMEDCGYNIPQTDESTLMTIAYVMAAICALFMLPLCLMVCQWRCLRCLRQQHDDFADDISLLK
T1 sequence (P22303 32-614): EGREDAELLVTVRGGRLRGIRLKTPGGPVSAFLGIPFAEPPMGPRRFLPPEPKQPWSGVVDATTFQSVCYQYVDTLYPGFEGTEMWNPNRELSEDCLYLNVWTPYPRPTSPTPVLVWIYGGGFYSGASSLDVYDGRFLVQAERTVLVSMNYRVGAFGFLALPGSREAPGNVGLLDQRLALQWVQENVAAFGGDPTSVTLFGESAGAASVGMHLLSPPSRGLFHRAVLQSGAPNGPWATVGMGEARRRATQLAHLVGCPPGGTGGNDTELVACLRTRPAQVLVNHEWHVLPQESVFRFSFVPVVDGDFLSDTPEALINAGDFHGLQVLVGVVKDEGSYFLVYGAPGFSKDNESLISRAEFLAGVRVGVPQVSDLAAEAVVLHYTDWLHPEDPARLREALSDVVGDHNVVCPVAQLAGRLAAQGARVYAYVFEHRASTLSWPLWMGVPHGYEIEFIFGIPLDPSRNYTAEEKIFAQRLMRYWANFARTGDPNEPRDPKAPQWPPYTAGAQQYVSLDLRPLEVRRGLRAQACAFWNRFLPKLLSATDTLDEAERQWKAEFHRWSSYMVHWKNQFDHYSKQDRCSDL

Compound	Selectivity index (SI) [1]	IC50 [1]	IC50 [2] [µM]	IC50 [3] [µM]	IC50 [4] [µM]	IC50 [6] [µM]	further results
COc1cc(OC)cc(-c2cc3c(ccc4c(=O)c(C=O)coc43)o2)c1 [Compound 2g, 8-(3,5-Dimethoxyphenyl)-4-oxo-4H-furo[2,3-h]chromene-3-carbaldehyde]	1.1	25.3 ± 0.02 µM	23.2 ± 0.04	23.5 ± 0.03	10.6 ± 0.04	8.3 ± 0.02	IC50 [5]: 24.6 ± 0.02 µM
O=c1c(C=NNc2ccc(C(F)(F)F)cc2)coc2c1ccc1oc(-c3cccc(Cl)c3)cc12 [Compound 3d]	0.8	24.3 ± 0.03 µM	30.1 ± 0.03	30.2 ± 0.03	11.8 ± 0.03	32.5 ± 0.03	–
O=Cc1coc2c(ccc3oc(C4=CCCCC4)cc32)c1=O [Compound 2i, 8-(Cyclohex-1-en-1-yl)-4-oxo-4H-furo[2,3-h]chromene-3-carbaldehyde]	0.5	15.3 ± 0.03 µM	31.6 ± 0.02	12.1 ± 0.01	21.5 ± 0.02	15.9 ± 0.02	–
O=Cc1coc2c(ccc3oc(-c4cccc(F)c4)cc32)c1=O [Compound 2b, 8-(3-Fluorophenyl)-4-oxo-4H-furo[2,3-h]chromene-3-carbaldehyde]	1.7	15.2 ± 0.03 µM	9.2 ± 0.01	43.7 ± 0.01	18.6 ± 0.01	27.6 ± 0.02	–
O=Cc1coc2c(ccc3oc(-c4ccc(F)cc4)cc32)c1=O [Compound 2c, 8-(4-Fluorophenyl)-4-oxo-4H-furo[2,3-h]chromene-3-carbaldehyde]	1.1	30.4 ± 0.01 µM	28.3 ± 0.03	15.8 ± 0.03	14.3 ± 0.01	7.5 ± 0.02	–
O=c1c(C=NNc2ccc(C(F)(F)F)cc2)coc2c1ccc1oc(-c3ccccc3)cc12 [Compound 3a]	0.8	15.4 ± 0.01 µM	18.7 ± 0.03	29.7 ± 0.02	16.3 ± 0.01	15.3 ± 0.01	–
O=Cc1coc2c(ccc3oc(-c4ccccc4)cc32)c1=O [Compound 2a, 4-Oxo-8-phenyl-4H-furo[2,3-h]chromene-3-carbaldehyde]	0.8	25.1 ± 0.04 µM	34.2 ± 0.02	25.6 ± 0.01	12.5 ± 0.03	10.1 ± 0.03	–
O=Cc1coc2c(ccc3oc(-c4ccc(Cl)cc4)cc32)c1=O [Compound 2e, 8-(4-Chlorophenyl)-4-oxo-4H-furo[2,3-h]chromene-3-carbaldehyde]	0.8	27.1 ± 0.04 µM	32.6 ± 0.02	18.6 ± 0.01	15.2 ± 0.04	19.9 ± 0.01	–
O=Cc1coc2c(ccc3oc(-c4cccc(Cl)c4)cc32)c1=O [Compound 2d, 8-(3-Chlorophenyl)-4-oxo-4H-furo[2,3-h]chromene-3-carbaldehyde]	1.5	19.2 µM and 19.8 µM	13.2 ± 0.05	23.1 ± 0.02	22.9 ± 0.02	29.1 ± 0.01	–
COc1cccc2c1C(=O)c1c(O)c3c(c(O)c1C2=O)C[C@@](O)(C(=O)CO)C[C@@H]3O[C@H]1C[C@H](N)[C@H](O)[C@H](C)O1 [doxorubicin hydrochloride, reference compound]	–	–	–	–	–	–	IC50 ([7]; Homo sapiens, MCF7, 24 h treatment): 1.59 ± 0.01 µM
COc1ccc(-c2cc3c(ccc4c(=O)c(C=O)coc43)o2)cc1 [Compound 2f, 8-(4-Methoxyphenyl)-4-oxo-4H-furo[2,3-h]chromene-3-carbaldehyde]	1.6	34.2 ± 0.02 µM	21.8 ± 0.02	13.7 ± 0.04	8.2 ± 0.03	14.3 ± 0.02	IC50 [5]: 17.3 ± 0.01 µM
Cc1ccc(-c2cc3c(ccc4c(=O)c(C=NNc5ccc(C(F)(F)F)cc5)coc43)o2)cc1 [Compound 3h]	0.6	9.1 ± 0.02 µM	14.2	22.4 ± 0.01	18.6 ± 0.03	16.3 ± 0.03	–
Cc1ccc(-c2cc3c(ccc4c(=O)c(C=O)coc43)o2)cc1 [Compound 2h, 8-(4-Methyphenyl)-4-oxo-4H-furo[2,3-h]chromene-3-carbaldehyde]	0.8	20.9 ± 0.01 µM	25.9 ± 0.03	19.8 ± 0.03	9.2 ± 0.03	11.6 ± 0.03	IC50 [5]: 28.7 ± 0.03 µM
2-(4-Chlorophenyl)-6-[(4-trifluoromethylphenyl)hydrazonomethyl]furo[3,2-h]chromen-5-one [Compound 3e]	0.5	5.4 ± 0.02 µM	9.9 ± 0.04	10.4 ± 0.03	–	25.9 ± 0.05	IC50 [8]: 13.6 ± 0.02 µM; IC50 ([4]; soybean LOX-15, duplicate runs, read-out: IC50 LOX-15): 14.9 ± 0.04 µM; IC50 ([5]; human LOX-5, duplicate, read-out: IC50 LOX-5): 28.5 ± 0.02 µM; Ki ([9]; Dixon plot): 1.6 ± 0.01 µM; Mode of inhibition, AChE [9, 13]: non-competitive mode of inhibition; Ki ([10]; Dixon plot): 1.92 ± 0.01 µM; Mode of inhibition, BChE [10, 13]: non-competitive mode of inhibition; Ki ([11]; Dixon plot, substrate 150, 300 and 450 nM): 2.5 ± 0.01 µM; Mode of inhibition, BACE-1 [11, 13]: mixed mode of inhibition; IC50 ([7]; 24 h treatment): 6.82 ± 0.02 µM; Toxicity in Hek293-T cells [12]: non-toxic
O=C1O[C@H]([C@@H](O)CO)C(O)=C1O [Ascorbic acid, ascorbic acid, reference compound]	–	–	–	–	–	4.6 ± 0.01	–
